In ChEMBL document CHEMBL1201862, “PubChem BioAssay data set” (2004):
The source made the active and inactive calls.

Columns and labels:
Cytochrome P450 2D6 = Cytochrome P450 2D6 (Homo sapiens, UniProt P10635);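 note: CYP2D6 member of a cytochrome P450 panel assay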
Cytochrome P450 2C9 = Cytochrome P450 2C9 (Homo sapiens, UniProt P11712)
[1] = target: T1, Heat shock factor protein 1 (Mus musculus, UniProt P38532); assay: enhancement of HSF1-driven luciferase signal – cell-based, NIH3T3, luminescence, dose retest, confirmation (AID 435004); format: functional;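 note: stress induced by proteasome inhibitor MG132 added 30 min after compound; luciferase reporter driven by HSF1 response element in NIH3T3 cells; actives raise luminescence as potentiators of the MG132 stress response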
T1 sequence (P38532 whole entry): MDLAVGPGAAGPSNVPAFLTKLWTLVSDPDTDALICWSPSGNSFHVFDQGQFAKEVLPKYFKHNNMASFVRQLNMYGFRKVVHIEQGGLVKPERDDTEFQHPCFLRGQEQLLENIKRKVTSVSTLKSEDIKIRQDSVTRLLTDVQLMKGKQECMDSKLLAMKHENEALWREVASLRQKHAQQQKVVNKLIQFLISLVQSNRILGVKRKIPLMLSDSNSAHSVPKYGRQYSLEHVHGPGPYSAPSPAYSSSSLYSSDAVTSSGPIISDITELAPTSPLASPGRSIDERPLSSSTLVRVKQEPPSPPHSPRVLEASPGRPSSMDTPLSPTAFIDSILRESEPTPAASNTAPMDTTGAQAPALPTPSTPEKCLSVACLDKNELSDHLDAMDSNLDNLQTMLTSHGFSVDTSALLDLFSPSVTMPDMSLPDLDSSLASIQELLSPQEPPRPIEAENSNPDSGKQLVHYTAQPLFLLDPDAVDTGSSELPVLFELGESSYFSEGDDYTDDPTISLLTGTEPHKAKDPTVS

[2] = target: T1, Heat shock factor protein 1; assay: decrease of HSF1-responsive luciferase luminescence – cell-based, NIH3T3, dose retest, confirmation (AID 2382); format: functional;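 note: NIH3T3 fibroblasts with HSF1-driven luciferase reporter stressed by proteasome inhibitor MG132; luminescence from HSF1-driven luciferase expression after 8 hours of MG132 stress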
[3] = target: FAD-linked sulfhydryl oxidase ALR (Homo sapiens, UniProt P55789); assay: ALR-catalysed DTT oxidation blockers – biochemical, H2O2 detection, luminescence, cherry-pick, dose response (AID 493248)
FAD-linked sulfhydryl oxidase ALR, sequence (P55789 whole entry): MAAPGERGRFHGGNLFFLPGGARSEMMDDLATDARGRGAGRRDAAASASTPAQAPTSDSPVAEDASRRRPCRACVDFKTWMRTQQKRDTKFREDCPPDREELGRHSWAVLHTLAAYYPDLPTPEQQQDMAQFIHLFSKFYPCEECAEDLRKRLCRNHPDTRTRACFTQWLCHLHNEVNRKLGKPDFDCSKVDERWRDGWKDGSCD

Cytochrome P450 2C19 = Cytochrome P450 2C19 (Homo sapiens, UniProt P33261); assay: Cytochrome panel assay with activity outcomes. Panel member name: p450-cyp2c19 Compounds with AC50 equal or less than 10 uM are considered active; format: functional
Cytochrome P450 2C19, sequence (P33261 whole entry): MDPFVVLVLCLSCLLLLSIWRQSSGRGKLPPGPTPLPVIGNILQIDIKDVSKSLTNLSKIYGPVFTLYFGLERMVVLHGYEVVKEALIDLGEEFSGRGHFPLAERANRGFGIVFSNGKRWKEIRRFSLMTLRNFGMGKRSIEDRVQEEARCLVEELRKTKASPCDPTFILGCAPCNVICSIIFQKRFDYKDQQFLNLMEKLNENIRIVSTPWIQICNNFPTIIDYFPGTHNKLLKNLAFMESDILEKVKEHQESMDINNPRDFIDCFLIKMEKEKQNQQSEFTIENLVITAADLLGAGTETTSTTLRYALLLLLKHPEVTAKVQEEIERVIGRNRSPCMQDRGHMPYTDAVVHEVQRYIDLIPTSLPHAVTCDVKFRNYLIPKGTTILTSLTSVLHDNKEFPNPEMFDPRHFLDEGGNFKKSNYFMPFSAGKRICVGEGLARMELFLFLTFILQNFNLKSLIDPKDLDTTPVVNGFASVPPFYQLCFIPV

Cytochrome P450 3A4 = Cytochrome P450 3A4 (Homo sapiens, UniProt P08684);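 note: CYP3A4 tested as one member of a cytochrome P450 panel screen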
Cytochrome P450 3A4, sequence (P08684 whole entry): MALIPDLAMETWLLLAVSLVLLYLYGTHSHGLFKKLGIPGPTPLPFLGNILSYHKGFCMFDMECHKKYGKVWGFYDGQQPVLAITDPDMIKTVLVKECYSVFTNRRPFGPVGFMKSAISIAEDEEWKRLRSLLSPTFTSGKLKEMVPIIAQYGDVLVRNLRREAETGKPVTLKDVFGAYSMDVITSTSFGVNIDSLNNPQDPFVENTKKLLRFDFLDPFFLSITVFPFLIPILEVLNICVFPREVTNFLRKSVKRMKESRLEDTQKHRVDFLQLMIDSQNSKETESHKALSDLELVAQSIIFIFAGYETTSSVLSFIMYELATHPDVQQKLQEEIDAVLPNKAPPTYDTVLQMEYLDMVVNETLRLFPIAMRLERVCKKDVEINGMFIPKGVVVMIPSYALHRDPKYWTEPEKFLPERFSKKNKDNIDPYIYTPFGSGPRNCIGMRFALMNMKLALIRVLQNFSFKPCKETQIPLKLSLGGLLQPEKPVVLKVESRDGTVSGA

[4] = microbe, parasite or virus in culture; format: functional; settings: Mycobacterium tuberculosis
[5] = viability of uninfected HEp-2 cells – cell-based, HTS, cytotoxicity control for RSV inhibitor project, dose response (AID 2410); format: functional; settings: human respiratory syncytial virus
[6] = luciferase reporter signal suppression in cells – H4 neuroglioma cells, luminescence, dose response (AID 1990); format: functional, cell-based
[7] = Luminescence Cell-Based Dose Response HTS to Identify Inhibitors of 5'UTR Stem-Loop Driven Prion Protein mRNA Translation in H4 Neuroglioblastoma Cells. [Related pubchem assays: 1827 (Project Summary), 1813 (Primary HTS)]; format: functional
[8] = alpha-synuclein stem-loop luciferase translation blockers – H4 neuroglioma cells, luminescence, confirmation (AID 1988); format: functional, cell-based

Cytochrome P450 2C9, sequence (P11712 whole entry): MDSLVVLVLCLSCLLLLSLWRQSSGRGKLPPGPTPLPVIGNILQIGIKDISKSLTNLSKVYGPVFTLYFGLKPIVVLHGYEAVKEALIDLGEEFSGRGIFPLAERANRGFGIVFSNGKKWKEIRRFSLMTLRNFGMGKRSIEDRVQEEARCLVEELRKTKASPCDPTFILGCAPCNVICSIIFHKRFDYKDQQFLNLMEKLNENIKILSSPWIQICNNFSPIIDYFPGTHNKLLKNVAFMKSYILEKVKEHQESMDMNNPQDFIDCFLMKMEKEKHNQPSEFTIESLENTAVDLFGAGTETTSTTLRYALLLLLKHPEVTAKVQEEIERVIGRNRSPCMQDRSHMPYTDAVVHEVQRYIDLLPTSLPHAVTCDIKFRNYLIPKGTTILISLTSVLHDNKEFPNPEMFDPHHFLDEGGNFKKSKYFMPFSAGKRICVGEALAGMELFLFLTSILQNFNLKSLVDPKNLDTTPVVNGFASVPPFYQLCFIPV
Cytochrome P450 2D6, sequence (P10635 whole entry): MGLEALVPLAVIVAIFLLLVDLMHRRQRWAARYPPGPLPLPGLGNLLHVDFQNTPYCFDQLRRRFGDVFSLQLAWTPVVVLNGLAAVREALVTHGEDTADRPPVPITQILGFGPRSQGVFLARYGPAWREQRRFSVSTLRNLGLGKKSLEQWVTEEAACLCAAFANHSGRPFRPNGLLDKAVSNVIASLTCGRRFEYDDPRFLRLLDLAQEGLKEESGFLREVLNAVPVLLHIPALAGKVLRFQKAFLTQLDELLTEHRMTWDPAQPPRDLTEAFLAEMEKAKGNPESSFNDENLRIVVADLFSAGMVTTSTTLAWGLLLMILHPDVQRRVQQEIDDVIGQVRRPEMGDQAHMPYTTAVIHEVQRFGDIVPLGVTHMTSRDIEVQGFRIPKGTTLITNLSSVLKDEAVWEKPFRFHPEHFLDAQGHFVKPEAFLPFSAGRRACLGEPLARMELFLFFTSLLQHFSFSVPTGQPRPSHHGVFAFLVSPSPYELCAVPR

O=S(=O)(c1ccccc1)N1CCC2(CCN(Cc3ccncc3)CC2)CC1
AC50 (Cytochrome P450 2D6): 25.1 µM (inconclusive) | AC50 (Cytochrome P450 2C9): 25.1 µM (inconclusive)

CCOC(=O)C(=O)/C(C#N)=C/Nc1ccccc1
EC50 [1]: 168 µM (active)

OC(COc1c(F)cc(Br)cc1F)CN1CCN(c2ccc(F)cc2)CC1 (stereo not given)
EC50 [2]: > 195 µM (not active)

O=C(c1ccco1)N1CCN=C1SCc1cccc(Cl)c1
AC50 [3]: 18.1 µM (active)

CCC(=O)N(C)CCc1cc2c(c(OC)c1/C=N/Nc1ccc(C(=O)O)cc1)OCO2
AC50 [3]: 3.56 µM (active)

Cc1ccc(NC(=NO)c2nonc2N)cc1
AC50 [3]: 19.3 µM (active)

Cc1cc(C)c2cc(CN(Cc3ccco3)C(S)=NCC3CCCO3)c(O)nc2c1 (stereo not given)
EC50 [1]: > 260 µM (inactive)

COc1ccc(OC)c(NC(=O)CSCC(=O)O)c1
EC50 [2]: > 195 µM (not active)

CCOC(=O)CSc1nc(O)c2cnn(-c3ccc(C)cc3)c2n1
AC50 (Cytochrome P450 2C19): inconclusive | AC50 (Cytochrome P450 3A4): 3.16 µM (inconclusive) | AC50 (Cytochrome P450 2C9): 2.24 µM (inconclusive)

Cn1c(NCC(O)c2ccccc2)nc2c1c(=O)n(Cc1ccc(Cl)c(Cl)c1)c(=O)n2C (stereo not given)
CC50 [4]: 25.5 µM (active)

CCOC(=O)C1(C)NC(c2ccc(O)cc2)C2C(=O)N(c3ccccc3)C(=O)C21 (stereo not given)
EC50 [2]: 93.8 µM (active)

O=C(c1ccccc1Cl)N1N=C(c2ccc(Br)cc2)CC1c1nc2ccccc2[nH]1 (stereo not given)
CC50 [5]: 14.3 µM (active)

CCOC(=O)C1=C(c2ccccc2)NC(SC)=C(C#N)C1c1ccco1 (stereo not given)
EC50 [1]: > 260 µM (inactive)

CN(c1ccccc1C(=O)N1CCN(c2ccccc2)CC1)S(C)(=O)=O
AC50 [3]: 2.93 µM (active)

COc1nc(-c2ccccc2)cc(-c2ccc3c(c2)OCO3)c1C#N
EC50 [6]: 11.2 µM (inconclusive) | EC50 [7]: 27.6 µM (active) | EC50 [8]: 3.63 µM (active)

CSc1c(CC(=O)Nc2ccccc2)n(C)c2ccccc12
EC50 [6]: > 120 µM (not active) | EC50 [7]: > 120 µM (not active) | EC50 [8]: 0.344 µM (inconclusive)

COc1cc(CN(C2CCCCC2C)S(=O)(=O)c2ccc(S(=O)(=O)NC3CC3)cc2)cc(OC)c1OC (stereo not given)
EC50 [6]: 103 µM (active) | EC50 [7]: > 120 µM (not active) | EC50 [8]: > 120 µM (not active)

O=C(NCc1ccncc1)C(=O)Nc1nc(C23CC4CC(CC(C4)C2)C3)cs1
EC50 [2]: > 195 µM (not active)

Oc1[nH]c2ccccc2c1C1=NCCCC1
AC50 [3]: 0.325 µM (active)

O=C(Nc1ccc(Oc2cccc(C(F)(F)F)c2)nc1)c1cccs1
CC50 [4]: > 40 µM (active)

O[C@@H]1C2CCCC1[C@]1(O)CCCCC1C2 (stereo not given in full)
EC50 [1]: > 260 µM (inactive)

COc1ccccc1C(CNC(=O)C(C)(C)Oc1ccc(Cl)cc1)N1CCCC1 (stereo not given)
CC50 [4]: > 40 µM (active)

OCCCNc1nc(-c2ccc(Cl)cc2)nc2ccccc12
CC50 [5]: > 50 µM (active)

CCOC(=O)C1CCCN(Cc2cc(=O)oc3cc(C)c(C(C)C)cc23)C1 (stereo not given)
CC50 [5]: 31.3 µM (active)

O=C(O)c1ccc(/N=c2\oc3cc(O)ccc3cc2C(=O)NCc2ccccc2)cc1
AC50 [3]: 1.71 µM (active)

COc1ccc2[nH]c(C(=O)c3ccccc3)cc2c1
AC50 (Cytochrome P450 2C9): 39.8 µM (inconclusive)

CCOc1cc(-c2c(C#N)c(O)nc3c2c(C)nn3-c2ccc(F)cc2)ccc1O
CC50 [4]: > 40 µM (active)

O=C(NCc1ccc(F)cc1)C1CCN(S(=O)(=O)N2CCCCC2)CC1
AC50 (Cytochrome P450 2C19; read-out: AC50): 31.6 µM (inconclusive) | AC50 (Cytochrome P450 3A4): 14.1 µM (inconclusive) | AC50 (Cytochrome P450 2C9): 10 µM (inconclusive)

COc1ccc(NC(C)C(=O)Nc2ccc(C(C)(C)C)cc2)cc1Cl (stereo not given)
CC50 [4]: > 40 µM (active)
